# Assay results from patent publication US20250040548A1, “Herbicidal compositions comprising saflufenacil” (BASF SF, priority 2023, published 2025).
# What was measured:
# ERISS = experiment: Post-emergence application in field trials (Examples 2 and 3); type: in vivo, Erigeron sp.; conditions: B-1 25 g ai/ha, 14 DAT, height 30-50 cm, 0.5% v/v MSO
# Protocol: (§1) In the examples below, using the method of S. R. Colby (1967) “Calculating synergistic and antagonistic responses of herbicide combinations”, Weeds 15, p. 22ff., the value E, which is expected if the activity of the individual active compounds is only additive, was calculated.
# (§2) [formula] • where • X=percent activity using active herbicide A at an application rate a; • Y=percent activity using active saflufenacil at an application rate b; • E=expected activity (in %) by A+B at application rates a+b.
# (§3) If the value found experimentally is higher than the value E calculated according to Colby, a synergistic effect is present.
# (§4) On field test sites, natural weed infestation or seeded weeds were treated post-emergence of the weeds.
# (§5) For the post emergence treatment, the weedy plants were treated as indicated below. The herbicidal compositions were, together with the adjuvant(s) as indicated, suspended or emulsified in water (200 l/ha unless indicated otherwise) as distribution medium and sprayed with commercial flat fan nozzles.
# (§6) In the following experiments, the herbicidal activity for the individual herbicidal compositions (solo and mixture applications) was assessed the indicated days after treatment (DAT). The assessments for the damage on undesired weeds caused by the composition was carried out using a scale from 0 to 100%, compared to the untreated control plants. Here, 0 means no damage and 100 means complete destruction of the plants.
# as §5, with “I/ha” for “l/ha”
# DIGSA = experiment: as above; type: in vivo, Digitaria sanguinales
# Protocol: as §1, §2, §3, §4, §5, §6
# as §5, with “I/ha” for “l/ha”
# ERICA = experiment: as above; type: in vivo, Erigeron canadensis; conditions: 21 DAT
# Protocol: as §1, §2, §3, §4, §5, §6
# as §5, with “I/ha” for “l/ha”
# ALOMY = experiment: Post-emergence application in greenhouse trials; type: in vivo, Alopercurus myosuroides; conditions: B-1 3.12 g ai/ha, 7 DAT, growth stage 21, saflufenacil as commercial 342 g/l SC formulation
# Protocol: as §1, §2, §3
# (§7) The culture containers used were plastic pots containing loamy sand with approximately 3.0% of humus as substrate. The seeds of the test plants were sown separately for each species.
# (§8) For the post-emergence treatment, the test plants were grown to a plant height of from 3 to 15 cm, depending on the plant habit, and only then treated with the active compounds which had been suspended or emulsified in water. To this end, the test plants were either sown directly, and grown in the same containers, or they were first grown separately as seedlings and transplanted into the test containers a few days prior to treatment. […]
# (§9) The test period extended over 2 to 4 weeks. During this time, the plants were tended and their response to the individual treatments was evaluated. […]
# ELEIN [1] = experiment: Post-emergence application in field trials (Examples 2 and 3); type: in vivo, Eleusine indica
# Protocol: as §1, §2, §3, §4, §5, §6
# as §5, with “I/ha” for “l/ha”
# CYPES = experiment: as above; type: in vivo, Cyperus esculentus; conditions: B-1 12.5 g ai/ha, 21 DAT, height 15-23 cm, 140 l/ha water, 1% MSO + 2.5% ammoniumsulfate
# Protocol: as §1, §2, §3, §4, §5
# as §6, with “Here, 0 means no damage and 100 means complete destruction of the plants.” left out
# COMBE = experiment: as above; type: in vivo, Commelina benghalensis; conditions: B-1 25 g ai/ha, 21 DAT, growth stage 11-14, height 2-10 cm, 0.5% MSO
# Protocol: as §1, §2, §3, §4, §5
# as §6, with “Here, 0 means no damage and 100 means complete destruction of the plants.” left out
# POAAN = experiment: as above; type: in vivo, Poa annua
# Protocol: as §1, §2, §3, §4, §5, §6
# as §5, with “I/ha” for “l/ha”
# AMATA = experiment: Post-emergence application in greenhouse trials; type: in vivo, Amaranthus tamariscinus; conditions: 20 DAT, growth stage 14, 1% MSO
# Protocol: as §1, §2, §3, §7
# (§10) For the post-emergence treatment, the test plants were grown to a plant height of from 3 to 15 cm, depending on the plant habit, and only then treated with the active compounds which had been suspended or emulsified in water. To this end, the test plants were either sown directly, and grown in the same containers, or they were first grown separately as seedlings and transplanted into the test containers a few days prior to treatment.
# (§11) Depending on the species, the plants were kept at 10-25° C. and 20-35° C., respectively.
# (§12) The test period extended over 2 to 4 weeks. During this time, the plants were tended and their response to the individual treatments was evaluated.
# (§13) Evaluation was carried out using a scale from 0 to 100. 100 means no emergence of the plants, or complete destruction of at least the above-ground parts, and 0 means no damage or normal course of growth. A good herbicidal activity is given at values of at least 70, and very good herbicidal activity is given at values of at least 85.
# (§14) Unless indicated otherwise, herbicide A and saflufenacil were formulated (50 g/I) and applied with addition of 1% MSO (methylated seed oil) as adjuvant. In the greenhouse trials, the solvent used was water (200 I/ha).
# SETVI = experiment: Post-emergence application in field trials (Examples 2 and 3); type: in vivo, Setaria viridis
# Protocol: as §1, §2, §3, §4, §5, §6
# as §5, with “I/ha” for “l/ha”
# ELEIN [2] = experiment: Post-emergence application in greenhouse trials; type: in vivo, Eleusine indica; conditions: B-1 3.12 g ai/ha, 21 DAT, growth stage 21, saflufenacil as commercial 342 g/l SC formulation
# Protocol: as §1, §2, §3, §7, §8, §9
# KCHSC = experiment: Post-emergence application in greenhouse trials; type: in vivo, Kochia scoparia; conditions: growth stage 33, 1% MSO
# Protocol: as §1, §2, §3, §7, §10, §11, §12, §13, §14
# AVEST = experiment: Post-emergence application in field trials (Examples 2 and 3); type: in vivo, Avena stirilis; conditions: growth stage 12-22, B-1 solo 25 g ai/ha, 14 DAT, 1% v/ MSO
# Protocol: as §1, §2, §3, §4, §5
# as §6, with “Here, 0 means no damage and 100 means complete destruction of the plants.” left out
# EPHHL = experiment: as above; type: in vivo, Euphorbia heterophylla; conditions: B-1 25 g ai/ha, 21 DAT, growth stage 12-16, height 5-15 cm, 0.5% MSO
# Protocol: as §1, §2, §3, §4, §5
# as §6, with “Here, 0 means no damage and 100 means complete destruction of the plants.” left out
smiles,measurement,setting,value
"CC(C)N(C)S(=O)(=O)NC(=O)c1cc(-n2c(=O)cc(C(F)(F)F)n(C)c2=O)c(F)cc1Cl [B-1, saflufenacil]",% Herbicidal activity,ERISS,63%
same,% Herbicidal activity,"DIGSA; B-1 12.5 g ai/ha, 21 DAT, height 3-12 cm, 140 l/ha water, 1% MSO + 2.5% ammoniumsulfate",20%
same,% Herbicidal activity,"DIGSA; B-1 25 g ai/ha, 19 DAT, growth stage 13-19, height 2.5-7.5 cm, 1% v/v MSO and 1% w/v ammoniumsulfate",23%
same,% Herbicidal activity,"ERICA; B-1 6.25 g ai/ha, height 12.5-25 cm, field, 140 l/ha water, 1% MSO + 2.5% ammoniumsulfate",40%
same,% Herbicidal activity,"ERICA; B-1 12.5 g ai/ha, height 12.5-25 cm, field, 140 l/ha water, 1% MSO + 2.5% ammoniumsulfate",73%
same,% Herbicidal activity,"ERICA; ERICA, height 5-10 cm, B-1 solo 25 g ai/ha, 1% v/v MSO and 1% AMS (ammonium sulfate)",90%
same,% Herbicidal activity,ALOMY,25%
same,% Herbicidal activity,"ELEIN [1]; B-1 12.5 g ai/ha, 21 DAT, height 1-15 cm, 140 l/ha water, 1% MSO + 2.5% ammoniumsulfate",19%
same,% Herbicidal activity,"ELEIN [1]; B-1 25 g ai/ha, 19 DAT, growth stage 24, 0.5% MSO",0%
same,% Herbicidal activity,"ELEIN [1]; B-1 25 g ai/ha, 21 DAT, height 7-10 cm, 1% v/v MSO and 1% w/v ammoniumsulfate",0%
same,% Herbicidal activity,"ELEIN [1]; B-1 25 g ai/ha, 21 DAT, height 15-20 cm, 1% v/v MSO and 1% w/v ammoniumsulfate",0%
same,% Herbicidal activity,CYPES,25%
same,% Herbicidal activity,COMBE,5%
same,% Herbicidal activity,"POAAN; B-1 12.5 g ai/ha, 21 DAT, growth stage 55-65, height 10-15 cm, field, 140 l/ha water, 1% MSO + 2.5% ammoniumsulfate",18%
same,% Herbicidal activity,"POAAN; POAAN, height 2.5-4 cm, B-1 solo 25 g ai/ha, 7 DAT, 1% v/v MSO",12%
same,% Herbicidal activity,AMATA; B-1 0.2 g ai/ha,70%
same,% Herbicidal activity,AMATA; B-1 0.3 g ai/ha,85%
same,% Herbicidal activity,"SETVI; B-1 25 g ai/ha, 19 DAT, growth stage 13-19, height 2.5-10 cm, field, 1% v/v MSO and 1% w/v ammoniumsulfate",22%
same,% Herbicidal activity,"SETVI; SETVI, height 50-61 cm, B-1 solo 25 g ai/ha, 42 DAT, 1% v/v MSO and 2.5% AMSOL ®",33%
same,% Herbicidal activity,ELEIN [2],30%
same,% Herbicidal activity,"KCHSC; B-1 0.2 g ai/ha, 6 DAT",15%
same,% Herbicidal activity,"KCHSC; B-1 0.3 g ai/ha, 6 DAT",35%
same,% Herbicidal activity,"KCHSC; B-1 0.8 g ai/ha, 6 DAT",60%
same,% Herbicidal activity,"KCHSC; B-1 0.8 g ai/ha, 20 DAT",70%
same,% Herbicidal activity,"KCHSC; B-1 0.9 g ai/ha, 6 DAT",60%
same,% Herbicidal activity,"KCHSC; B-1 1 g ai/ha, 6 DAT",80%
same,% Herbicidal activity,"KCHSC; B-1 1 g ai/ha, 20 DAT",80%
same,% Herbicidal activity,AVEST,0%
same,% Herbicidal activity,EPHHL,5%
